Experimental data from ChEMBL document CHEMBL4828718, “Synthesis and Antifungal Activity Evaluation of Phloeodictine Analogues” (J Nat Prod, 2021).
Values after ≈ are worked out from the molar mass of the structure shown. Active and inactive are the calls of the source. No cut-off for these calls is given here.

Columns and labels:
Cryptococcus neoformans [1] = test: Antifungal activity against Cryptococcus neoformans ATCC 90113 assessed as fungal growth inhibition incubated for 72 hrs by alamar blue assay; type: functional; details: Cryptococcus neoformans, ATCC 90113, 72 h, read-out: MIC
Cryptococcus neoformans [2] = test: Fungicidal activity against Cryptococcus neoformans ATCC 90113 assessed as fungal growth inhibition incubated for 72 hrs by alamar blue assay; type: functional; details: Cryptococcus neoformans, ATCC 90113, 72 h, read-out: MFC
Candida albicans [3] = test: Antifungal activity against Candida albicans ATCC 90028 assessed as fungal growth inhibition incubated for 18 to 24 hrs by alamar blue assay; type: functional
Candida albicans [4] = test: Fungicidal activity against Candida albicans ATCC 90028 assessed as fungal growth inhibition incubated for 18 to 24 hrs by alamar blue assay; type: functional
Nakaseomyces glabratus [5] = test: Antifungal activity against Candida glabrata ATCC 90030 assessed as fungal growth inhibition incubated for 18 to 24 hrs by alamar blue assay; type: functional
Nakaseomyces glabratus [6] = test: Fungicidal activity against Candida glabrata ATCC 90030 assessed as fungal growth inhibition incubated for 18 to 24 hrs by alamar blue assay; type: functional
Pichia kudriavzevii [7] = test: Antifungal activity against Candida krusei ATCC 6258 assessed as fungal growth inhibition incubated for 18 to 24 hrs by alamar blue assay; type: functional
Pichia kudriavzevii [8] = test: Fungicidal activity against Candida krusei ATCC 6258 assessed as fungal growth inhibition incubated for 18 to 24 hrs by alamar blue assay; type: functional
Aspergillus fumigatus [9] = test: Antifungal activity against Aspergillus fumigatus ATCC 90906 assessed as fungal growth inhibition incubated for 72 hrs by alamar blue assay; type: functional
Aspergillus fumigatus [10] = test: Fungicidal activity against Aspergillus fumigatus ATCC 90906 assessed as fungal growth inhibition incubated for 72 hrs by alamar blue assay; type: functional
Vero = test: Cytotoxicity against African green monkey Vero cells assessed as reduction in cell viability incubated for 48 hrs by neutral red dye based assay; parameters: species or system Chlorocebus sabaeus; details: Chlorocebus sabaeus, Vero, 48 h
[11] = Candida albicans, ATCC 90028, time 18-24 hrs, read-out: MIC
[12] = Candida albicans, ATCC 90028, time 18-24 hrs, read-out: MFC
[13] = Nakaseomyces glabratus, ATCC 90030, time 18-24 hrs, read-out: MIC
[14] = Nakaseomyces glabratus, ATCC 90030, time 18-24 hrs, read-out: MFC
[15] = Pichia kudriavzevii, ATCC 6258, time 18-24 hrs, read-out: MIC
[16] = Pichia kudriavzevii, ATCC 6258, time 18-24 hrs, read-out: MFC
[17] = Aspergillus fumigatus, ATCC 90906, 72 h, read-out: MIC
[18] = Aspergillus fumigatus, ATCC 90906, 72 h, read-out: MFC

Structure (SMILES) | MIC (Cryptococcus neoformans [1]) | MFC (Cryptococcus neoformans [2]) | MIC (Candida albicans [3]; time 18-24 hrs) | MFC (Candida albicans [4]; time 18-24 hrs) | MIC (Nakaseomyces glabratus [5]; time 18-24 hrs) | MFC (Nakaseomyces glabratus [6]; time 18-24 hrs) | MIC (Pichia kudriavzevii [7]; time 18-24 hrs) | MFC (Pichia kudriavzevii [8]; time 18-24 hrs) | MIC (Aspergillus fumigatus [9]) | MFC (Aspergillus fumigatus [10]) | IC50 (Vero) | MIC (Candida albicans [3]; [11]) | MFC (Candida albicans [4]; [12]) | MIC (Nakaseomyces glabratus [5]; [13]) | MFC (Nakaseomyces glabratus [6]; [14]) | MIC (Pichia kudriavzevii [7]; [15]) | MFC (Pichia kudriavzevii [8]; [16]) | MIC (Aspergillus fumigatus [9]; [17]) | MFC (Aspergillus fumigatus [10]; [18])
CCCCCCCCCCCCCCC1(O)C(C)=C(C)C2=[N+](CC(=O)NCCOCCOCCOCCNC(=O)CCCC[C@@H]3SC[C@@H]4NC(=O)N[C@@H]43)CCCN21 (some centres not stated) | 3.7 µM | 4.5 µM | inactive | inactive | inactive | inactive | inactive | inactive | inactive | inactive | > 28 µM | – | – | – | – | – | – | – | –
C=CC[N+]1=C2C(C)=C(C)C(O)(CCCCCCCCCCCCCC)N2CCC1 (configuration not stated) | 1 µM | 4.1 µM | – | – | – | – | – | – | – | – | 32 µM | 3.5 µM | 4.3 µM | 3.5 µM | 5.2 µM | 2.5 µM | 2.5 µM | 5.2 µM | 17 µM
CCCCCCCCCCCCCCC1(O)C(C)=C(C)C2=[N+](CC(=O)c3cccs3)CCCN21 (configuration not stated) | 12 µM | 12 µM | – | – | – | – | – | – | – | – | 27 µM | 7.4 µM | 7.4 µM | 5.1 µM | 5.1 µM | 5.1 µM | 5.1 µM | 8.8 µM | 8.8 µM
CCCCCCCCCCCCCCC1(O)C(C)=C(C)C2=[N+](CC(=O)OCC)CCCN21 (configuration not stated) | 1.9 µM | 2.8 µM | – | – | – | – | – | – | – | – | 44 µM | 9.4 µM | 17 µM | 6.2 µM | 11 µM | 5.5 µM | 5.5 µM | 9.4 µM | 9.4 µM
CCCCCCCCCCCCCCC1(O)C=CC2=[N+](C)CCCN21 (configuration not stated) | 0.21 µM | 0.21 µM | – | – | – | – | – | – | – | – | 17 µM | 5.2 µM | 5.2 µM | 1.7 µM | 1.7 µM | 2.1 µM | 2.1 µM | 4.4 µM | 4.4 µM
CCCCCCCCCCCCCCc1c(C)c(C)cn1CCCN | 2.9 µM (≈ 1.01 µg/mL) | 2.9 µM (≈ 1.01 µg/mL) | – | – | – | – | – | – | – | – | 44 µM | 24 µM (≈ 8.37 µg/mL) | 24 µM (≈ 8.37 µg/mL) | 11 µM (≈ 3.83 µg/mL) | 12 µM (≈ 4.18 µg/mL) | 12 µM (≈ 4.18 µg/mL) | 12 µM (≈ 4.18 µg/mL) | 19 µM (≈ 6.62 µg/mL) | 19 µM (≈ 6.62 µg/mL)
CCCCCCCCCCCCCCC1(O)C(C)=C(C)C2=[N+](Cc3ccc(F)cc3)CCCN21 (configuration not stated) | 1.5 µM | 1.5 µM | – | – | – | – | – | – | – | – | 33 µM | 6.7 µM | 6.7 µM | 2.2 µM | 2.2 µM | 2.2 µM | 2.2 µM | 3.1 µM | 3.1 µM
CCCCCCCCCCCCCCC1(O)C(C)=C(C)C2=[N+](CC(=O)NCCCC)CCCN21 (configuration not stated) | 1.8 µM | 1.8 µM | – | – | – | – | – | – | – | – | 45 µM | 7.5 µM | 10 µM | 5.2 µM | 5.9 µM | 3.8 µM | 3.8 µM | 7.5 µM | 7.5 µM
CCCCCCCCCCCCCCC1(O)C(C)=C(C)C2=[N+](C/C=C/c3ccccc3)CCCN21 (configuration not stated) | 1.4 µM | 4.1 µM | – | – | – | – | – | – | – | – | 38 µM | 3.8 µM | 3.8 µM | 2.7 µM | 4.1 µM | 3 µM | 3.8 µM | 4.5 µM | 5.9 µM
C#CC[N+]1=C2C(C)=C(C)C(O)(CCCCCCCCCCCCCC)N2CCC1 (configuration not stated) | 1.5 µM | 2.3 µM | – | – | – | – | – | – | – | – | 35 µM | 5.2 µM | 5.2 µM | 5.2 µM | 5.2 µM | 2.1 µM | 2.1 µM | 5.2 µM | 5.2 µM
CCCCCCCCCCCCCCC1(O)C(C)=C(C)C2=[N+](Cc3ccc4ccccc4c3)CCCN21 (configuration not stated) | 3.9 µM | 12 µM | inactive | inactive | inactive | inactive | inactive | inactive | inactive | inactive | 42 µM | – | – | – | – | – | – | – | –
CCCCCCCCCCCCCCC1(O)C(C)=C(C)C2=[N+](CC(=O)NCCCNC(=O)OC(C)(C)C)CCCN21 (configuration not stated) | 3.8 µM | 3.8 µM | – | – | – | – | – | – | – | – | > 38 µM | 14 µM | 14 µM | 7.6 µM | 14 µM | 5 µM | 5 µM | 10 µM | 15 µM
